{"source": "patent US9586896B2", "about": "“Nitroxyl donors with improved therapeutic index” (Cardioxyl Pharmaceuticals, Inc., priority 2013, dated 2017)", "test_system": "dogs", "assay": "72-hour continuous infusion investigative studies of CXL-1020 in dogs (implanted catheter)", "type": "in vivo", "conditions": "72-hour infusion", "description": "To determine the cause of the inflammation and hind limb swelling, a series of 72-hour continuous infusion investigative studies were conducted over the following 6 months. […] The first site of inflammation, the catheter insertion site, caused the dog hind limb swelling and inflammation observed in the early-terminated follow-up study. Increasing infusate pH from 4 to 6 decreased inflammation, improving the inflammatory profile by approximately 3-fold."}
{"smiles": "CS(=O)(=O)c1ccccc1S(=O)(=O)NO", "note": "[CXL-1020, N-hydroxy-2-methanesulfonylbenzene-1-sulfonamide]", "values": [{"measurement": "improvement of the inflammatory profile on increasing infusate pH from 4 to 6", "result": "approximately 3 fold"}, {"measurement": "dose rates at which significant undesirable side effects were still demonstrated", "setting": "infusate pH 6", "result": "greater than or equal to 3 μg/kg/min"}, {"measurement": "dose rates causing clinical pathology changes consistent with an inflammatory process", "setting": "pH 4 formulation, 1:1 molar CXL-1020:CAPTISOL in 5% dextrose", "result": "greater than or equal to 0.03 μg/kg/min"}]}
